Patent US6340705B1, “Use of α-linolenic acid metabolites for treatment or prevention of cancer” (Monsanto Technology, LLC, priority 1999, dated 2002)
Marks after values point to notes of the source that are not given here.

Key:
HepG2 cells [1] = assay: Metabolism of radiolabeled fatty acids to long chain n-3 PUFAs (EPA, DHA) in HepG2 cells; type: in vitro ADME
Procedure: HepG2 cells were allowed to take up ^14C-ALA or ^14C-SDA as described in Example 2. The total amount of ^14C-EPA, ^14C-DPA and ^14C-DHA present in the HepG2 cells was measured 6 hours, 24 hours and 48 hours after addition of the fatty acid by argentation thin layer chromatography (TLC). The amount of each fatty acid present as a band on the TLC plate was quantified by electronic autoradiography using an Instant Imager supplied by Packard (Meriden, Conn.).
HepG2 cells were allowed to take up ^14C-ALA, ^14C-SDA or ^14C-EPA as described in Example 2. The amount of ^14C-EPA and ^14C-DHA present in the HepG2 cells was measured 6 hours, 24 hours and 48 hours after addition of the fatty acids by argentation thin layer chromatography (TLC) as described in Example 3. The amount of ^14C-EPA and ^14C-DHA present as bands on the TLC plate were quantified by electronic autoradiography using an Instant Imager as described in Example 3.

[2] = type: in vivo, rats; conditions: rats, US17 diet with 1, 3 or 10 g/day human equivalent dose, one month
Excerpt: Mice were fed a US17 diet containing α-linolenic acid ethyl ester (ALA-EE), stearidonic acid ethyl ester (SDA-EE), eicosapentaenoic acid ethyl ester (EPA-EE), or docosahexaenoic acid ethyl ester (DHA-EE) in an amount equivalent to a human western diet containing 1, 3 or 10 g/day of the fatty acid (g/day human equivalent dose). In order to maintain a 17% fat (37 en %) content in the US17 diet, oleic acid (18:1 n-9), as an oleic acid cassette, was removed from the US17 diet in an amount equal to the amount of fatty acid ester that was added. Oleic acid was selected as the replacement fatty acid because literature reports indicate that oleic acid is neutral with respect to inflammation and cancer.
After one month on the respective US17-based diets, the mice were sacrificed and the fatty acid composition of each of their livers was analyzed by gas chromatography. The results of these analyses are pressured in FIG. 8.
The method used was as described in Example 6 except that rats were used in place of mice.

[3] = test system: Min/+ mouse model of intestinal cancer; assay: Intestinal polyp formation in the Min/+ mouse model of intestinal cancer; type: in vivo; parameters: Avg. large intestine tumor size: unit not given here; conditions: Min/+ mice
Procedure: The efficacy of select n-3 and n-6 polyunsaturated fatty acids was evaluated in the Min/+ mouse model of intestinal cancer. The following fatty acid ethyl esters were tested for their effect on intestinal polyp formation: 1) ALA-EE; 2) SDA-EE; 2) EPA-EE; 4) DHA-EE; 5) GLA-EE ([…], 18:3 n-6); and 6) CLA-EE (conjugated linoleic acid; c9t11-18:2 (77%)+c9c11-18:2 (18%)+other isomers (5%)).
These fatty acid ethyl esters were added to the US17 diet to provide 10 g/day human equivalent dose (3% wt.). The NSAID, sulindac (320 ppm), served as the positive control. In order to maintain a 17% fat (37 en%) content in the US17 diet, oleic acid (18:1 n-9) was removed from the US17 diet in an amount equal to the amount of the fatty acid ethyl ester that was added. Mice were received at approximately five weeks of age and were fed the test diets upon receipt. After seven weeks on the respective test diet, the mice were sacrificed and the intestinal polyps were counted and measured.

HT-29 cells = assay: Primary tumor growth in the nude mouse/HT-29 cancer model; type: in vivo; conditions: nude mice, HT-29 cells in footpad, US17 diet containing stearidonic acid 3% (10 g/day human equivalent dose), after 35 days
Procedure: The efficacy of stearidonic acid (18:4n-3) in inhibiting primary tumor growth was evaluated using the nude mouse/HT-29 model. The nude mouse/HT-29 model has been described previously. Hernandez-Alcoceloa R., Fernandez, F., Lacal, J C, Cancer Res., 59(13), 312-18 (1999); Fantini, J., Cancer J., 5(2) (1992).
Nude (i.e., immunodeficient) mice were fed the US17 diet for three weeks. HT-29 cells were cultured in RPMI-1640 medium supplemented with fetal bovine serum, penicillin, and streptomycin (Gibco, Grand Island, N.Y.) and maintained in a CO2 atmosphere at 37° C. After achieving the optimal cell density, the HT-29 cells were rinsed and then suspended in phosphate buffered saline (PBS). A cell suspension was made in MATRIGEL (Becton Dickinson Labware, Bedford, Mass.). The suspension was ⅔ by volume cells in PBS and ⅓ by volume MATRIGEL. MATRIGEL provides an extracellular matrix secreted by […]. The matrix contains angiogenic and cell proliferation growth factors that aid in HT-29 cell attachment and proliferation as a primary tumor.
One million cells were injected in a 30 μl volume into the subplanter area of the righthind footpad of the nude mice. […] The amount of primary tumor growth was measured by measuring the change in mouse footpad volume over time. Footpad volume was measured with a plethysmometer (Ugo Basile, Camerio-Varese, Italy).

[4] = Arachidonic acid level in phospholipid fraction of small intestine, Min/+ mouse; type: in vivo; conditions: Min/+ mice, fed as ethyl esters, 10 g/day human equivalent dose in US17 diet
Procedure: Fatty acid composition was determined in the small intestine because that is where the vast majority of polyps form. These fatty acid esters were added to the US17 diet as discussed in Example 8. The arachidonic acid level in the phospholipid fraction of the small intestines of the mice was determined by gas chromatography. In FIG. 11, bars labeled with the same letter (e.g., control and CLA, both labeled with a “b”) have values which, statistically, are not different.

HepG2 cells [5] = assay: Uptake of 14C-ALA, 14C-SDA and 14C-EPA by HepG2 cells; type: in vitro ADME
Procedure: To a culture medium containing HepG2 cells was added 20 μM ^14C-ALA, ^14C-SDA or ^14C-EPA complexed to fatty acid free BSA. The amount of ^14C-ALA, ^14C-SDA or ^14-EPA EPA Taken up by the HepG2 cells was measured 6 hours, 24 hours and 48 hours after addition of the fatty acid. A scintillation counter was used to measure the total amount of radioactivity in the HepG2 cells and the amount remaining in the medium.

[6] = large intestine and small intestine, versus US17 diet, 10 g/day human equivalent dose
[7] = 10 g/day human equivalent dose (3% wt.) or sulindac 320 ppm, seven weeks, mean ± SEM
[8] = 10 g/day human equivalent dose (3% wt.) or sulindac 320 ppm, seven weeks, mean ± SEM, tumor number × tumor size
[9] = fatty acid ethyl ester 10 g/day human equivalent dose (3% wt.) in US17 diet or sulindac 320 ppm, seven weeks
[10] = large and small intestine, 10 g/day human equivalent dose (3% wt.) or sulindac 320 ppm, seven weeks, mean ± SEM

- metabolism to long chain n-3 PUFAs, comparison (FIG. 2 to FIG. 3) (HepG2 cells [1]): faster than that of ALA
- rate of metabolism to EPA and further to DHA relative to ALA (HepG2 cells [1]): approximately twice that of ALA
- metabolized to 14C-fatty acid end products (EPA or DHA) or intermediates (20:4 n-3, 22:5 n-3, 24:5 n-3) (HepG2 cells [1]; 20 μM): ~95%
- radiolabeled fatty acid taken up by the cells (HepG2 cells [5]; 20 μM complexed to fatty acid free BSA, within the first six hours of incubation): Approximately 95%
- uptake by HepG2 cells, comparison (FIG. 1) (HepG2 cells [5]; 20 μM, 6, 24 and 48 hours): taken up equally
Compound: CC/C=C\C/C=C\C/C=C\C/C=C\CCCCC(=O)O [SDA, stearidonic acid]
- level of arachidonic acid in liver tissue (FIG. 9) [2]: greater decrease in the level of arachidonic acid than did either ALA or EPA
- effectiveness in inhibiting polyp formation and development in the large intestine ([3]; 10 g/day human equivalent dose): comparable to that of sulindac
- effectiveness in inhibiting polyp formation and development in the small intestine ([3]; 10 g/day human equivalent dose): comparable to that of EPA
- decrease in polyp load (number×size) [3, 6]: 56%
- decrease in polyp number [3, 6]: 47%
- decrease in polyp size [3, 6]: 18%
- Total small intestine tumors/group ([3]; 10 g/day human equivalent dose (3% wt.) or sulindac 320 ppm, seven weeks): 185
- Avg. large intestine tumors/mouse [3, 7]: 0.2 ± 0.1^d
- Avg. small intestine tumor size [3, 7]: 1.07 ± 0.02^ab mm
- Avg. small intestine tumors/mouse [3, 7]: 18.5 ± 1.9^c
- Avg. large intestine tumor size ([3]; 10 g/day human equivalent dose (3% wt.) or sulindac 320 ppm, seven weeks, mean ± SEM, only animals bearing colonic tumors): 1.50 ± 0.00^b
- Avg. large intestine tumor load [3, 8]: 0.30 ± 0.20^d mm
- Avg. small intestine tumor load [3, 8]: 19.90 ± 2.11^cd mm
- Total large intestine tumors/group [3, 9]: 2
- Total large intestine tumors/group, figure in brackets (animals bearing tumors/animals in group) [3, 9]: 2/10
- Total Avg. overall tumor load [3, 10]: 20.19 ± 2.24^cd mm
- Total Avg. overall tumor size [3, 10]: 1.08 ± 0.02^d mm
- Total Avg. tumors/mouse [3, 10]: 18.7 ± 1.9^a
- less primary tumor growth (footpad volume) than US17 diet (HT-29 cells): 33%
- decreasing the level of arachidonic acid in the small intestine (phospholipid fraction, FIG. 11) [4]: more effective than ALA, EPA and DHA
